This is an account of results in patent publication US4833136A, “Pharmaceutically useful pyrazolo[4,3-b]pyridines” (Beecham Group p.l.c., priority 1986, dated 1989).

In test [1] the test system is mouse sensitized to oxazolone. In words: Mouse oxazolone screen: topical anti-inflammatory activity in the mouse sensitized to oxazolone. Type of test: in vivo. The settings on record: oxazolone challenge 100 μg/ear, ears weighed 24 hours later. As for the experimental part:
Compounds were tested for topical anti-inflammatory activity in a screen using the mouse sensitized to oxazolone, by a method modified from that of Dietrich and Hess [Int. Arch. Allergy, 38, 246 (1970)].
Mice were sensitized with oxazolone (2 mg in 20 μl EtOH) on a shaved area of the abdomen. 5 days later, the animals received 10 μl THF/MeOH (1:1 v/v) on the right ear and the test compound in the same solvent on the left ear. 1 hour later, the animals were challenged with 100 μg oxazolone in 10 μl acetone on each ear. Ear weights were measured 24 hours later. Percentage inhibition of the inflammatory swelling refers to the increase in weight of left ears (oxazolone plus compound in THF/MeOH) compared to untreated negative controls, as a proportion of the increase in weight of right ears (oxazolone plus THF/MeOH) only similar controls.

Another test deals with cantharidin mouse ear. In words: Mouse cantharidin screen: topical anti-inflammatory activity, cantharidin mouse ear. Type of test: in vivo. The settings on record: cantharidin 25 μg/ear, ears weighed after 24 hours. As for the experimental part:
Compounds were tested for topical anti-inflammatory activity in a cantharidin mouse ear screen, modified from Swingle, Reiter and Schwartzmiller [Arch. int. Pharmacodyn. 254, 168-176, 1976].
25 μg cantharidin (in 10 μl THF) was applied to both ears. Compound, in the same solvent, was applied at the same time, to the left ear only. Ears were weighed after 24 hours. Percentage inhibition of the acute inflammatory swelling refers to the increase in weight of left ears (cantharidin plus compound) compared to solvent-treated negative controls, as a proportion of the increase in weight of right ears (cantharidin alone) over similar controls.

[2] abbreviates: dose 200 μg/ear 1 hour before challenge.

Consider `Cc1cc(NCCO)c2[nH]nc(Br)c2n1` [Compound 1, 3-Bromo-7-(2-hydroxyethylamino)-5-methyl-1H-pyrazolo-[4,3-b]pyridine], for which the “% Inhibition of the inflammatory swelling” value in test [1] (setting [2]) amounted to 22%. With `Cc1cc(NCCO)c2[nH]nc(C)c2n1` [Compound 2, 7-(2-Hydroxyethylamino)-3,5-dimethyl-1H-pyrazolo[4,3-b]pyridine], the “% Inhibition of the acute inflammatory swelling” value with cantharidin mouse ear (dose 500 μg/ear) is recorded as 86%. In addition, the “% Inhibition of the inflammatory swelling” value in test [1] (setting [2]) stood at 52%. Take `Cc1cc(NCCO)c2[nH]nc(-c3ccccc3)c2n1` [Compound 3, 7-(2-Hydroxyethylamino)-5-methyl-3-phenyl-1H-pyrazolo[4,3-b]pyridine]: in the test with cantharidin mouse ear (dose 500 μg/ear), the “% Inhibition of the acute inflammatory swelling” value is 98%. Also, the “% Inhibition of the inflammatory swelling” value in test [1] (dose 500 μg/ear 1 hour before challenge) is on record as 52%. On to `C=CCNc1cc(C)nc2c(C)n[nH]c12` [Compound 4, 7-Allylamino-3,5-dimethyl-1H-pyrazolo[4,3-b]pyridine], for which the “% Inhibition of the acute inflammatory swelling” value in the test on cantharidin mouse ear (dose 200 μg/ear) is 83%. In the case of `C=CCNc1cc(C)nc2c(-c3ccccc3)n[nH]c12` [Compound 5, 7-Allylamino-5-methyl-3-phenyl-1H-pyrazolo[4,3-b]pyridine], the “% Inhibition of the acute inflammatory swelling” value in the test with cantharidin mouse ear (dose 500 μg/ear) turned out to be 90%. Turning to `Cc1cc(NCCO)c2[nH]nc(-c3ccc(Cl)cc3)c2n1` [Compound 6, 3-(4-Chlorophenyl)-7-(2-hydroxyethylamino)-5-methyl-1H-pyrazolo[4,3-b]pyridine], the “% Inhibition of the acute inflammatory swelling” value in the test with cantharidin mouse ear (dose 200 μg/ear) is listed as 68%. For the same compound, the “% Inhibition of the inflammatory swelling” value in test [1] (setting [2]) was determined as 31%. For `Cc1cc(NCC(C)C)c2[nH]nc(-c3ccccc3)c2n1` [Compound 7, 7-Isobutylamino-5-methyl-3-phenyl-1H-pyrazolo[4,3-b]pyridine], the “% Inhibition of the acute inflammatory swelling” value in the test with cantharidin mouse ear (dose 500 μg/ear) is given as 39%. As for `Cc1cc(NCCO)c2nn(-c3ccccc3)c(C)c2n1` [Compound 13, 7-(2-Hydroxyethylamino)-3,5-dimethyl-2-phenylpyrazolo[4,3-b]pyridine], the “% Inhibition of the acute inflammatory swelling” value in the test with cantharidin mouse ear (dose 200 μg/ear) is recorded as 43%.
